{
  "source": "patent US20200010910A1",
  "about": "“Cytotoxic Chemotherapy-Based Predictive Assays for Acute Myeloid Leukemia” (The Regents of The University of California, priority 2017, published 2020)",
  "key": {"[1]": {"tested_on": "5637R", "test": "MTT assay IC50, oxaliplatin-resistant bladder cancer sub-line", "format": "cell-based, human", "conditions": "5637R, 72 hours", "protocol": "Drug-DNA adduct formation and repair was measured by accelerator mass spectrometry.\nTo confirm that 5637 was the original ATCC cell line, and that 5637R originated from the parental 5637 cell line, both cultures were sent to the ATCC Cell Line Authentication Service for cell verification per the ATCC protocol. More specifically, fifteen short tandem repeat (STR) loci plus the gender determining locus, amelogenin, were amplified using the commercially available PowerPlex® 16HS Kit from Promega.\nThese two cell lines were also cultured with a range of concentrations of cisplatin, carboplatin, gemcitabine, doxorubicin, methotrexate and vinblastine for 72 hours to determine IC50 for these other drugs (FIG. 16C). These drugs were chosen because of their frequent use in the treatment of bladder cancer."}, "[2]": {"tested_on": "A549", "test": "MTT assay IC50", "format": "cell-based, human", "protocol": "(§1) Six non-small cell lung cancer (NSCLC) cell lines were treated in culture with [^14C]carboplatin. Carboplatin-DNA monoadduct levels over time were determined by measuring ^14C content in genomic DNA with accelerator mass spectrometry (AMS). Cellular sensitivity to carboplatin and cisplatin was analyzed by the MTT assay (Henderson et al., International Journal of Cancer 2011).\n(§2) Human NSCLC cell lines H23, H460, H727, HCC827, H1975, and A549 were purchased from ATCC and were cultured with the recommended medium. The MTT assay was performed as previously reported to determine the drug concentration required to inhibit cell growth by 50% (IC50) of cisplatin and carboplatin. [^14C]Carboplatin (at 53 mCi/mmol) was mixed with unlabeled carboplatin to achieve the specific activities required for microdoses and therapeutic doses. Table 1 lists the six NSCLC cell lines and summarizes their IC50 characteristics, induced carboplatin-DNA monoadducts when treated with [^14C]carboplatin, and p and r^2 values for correlation analysis to the IC50 concentrations."}, "[3]": {"tested_on": "HCC827", "test": "MTT assay IC50", "format": "cell-based, human", "protocol": "as §1, §2"}, "[4]": {"tested_on": "H460", "test": "MTT assay IC50", "format": "cell-based, human", "protocol": "as §1, §2"}, "[5]": {"tested_on": "H1975", "test": "MTT assay IC50", "format": "cell-based, human", "protocol": "as §1, §2"}, "[6]": {"tested_on": "H727", "test": "MTT assay IC50", "format": "cell-based, human", "protocol": "as §1, §2"}, "[7]": {"tested_on": "H23", "test": "MTT assay IC50", "format": "cell-based, human", "protocol": "as §1, §2"}, "[8]": {"tested_on": "PDX Model BL0645", "test": "drug-DNA adducts in PDX tumor by AMS", "format": "in vivo, NSG mice", "conditions": "24 h", "excerpt": "(§3) Female NSG mice (5-8 weeks of age, body weight: 20 to 25 g) were obtained from Jackson Laboratories (CA, USA). All animals were kept under pathogen-free conditions and were allowed to acclimatize for at least 4 days prior to any experiments. PDX models bearing the indicated patient derived xenografts were created by subcutaneous injection at the flank of 1 mm^3 tumor tissue. To establish multiple PDXs to allow efficacy studies with multiple drugs, PDXs from passage 2-4 were minced into 1 mm^3 sections and injected subcutaneously into multiple mice. At least 3 mice were used for each treatment group. Tumors were allowed to grow to at about 100 mm^3 before being assessed for drug sensitivity or the induction of DNA adducts by the administration of a microdose or a therapeutic dose of labeled drug. To assess tumor response to chemotherapy, cisplatin was administered at 2 mg/kg IV every 7 days for a total of 3 cycles, or gemcitabine was administered at 150 mg/kg IP every 7 days for a total of 4 cycles. G/C combination chemotherapy consisted of the simultaneous administration of both drugs using the schema described above. Tumor growth was assessed by measuring palpable tumors with a caliper and calculating tumor volume. Drug-DNA adduct frequencies were measured in tumor tissue collected 24 hours after intravenous injection of labeled drug and stored at −80° C. until DNA isolation. DNA was isolated using a modified Wizard procedure (Promega), quantitated by spectrophotometry, and then stored frozen at −20° C. until AMS analysis. Ten micrograms of DNA per sample was converted to graphite and measured by AMS for 14C quantification as previously described.\n(§4) NSG mice bearing the indicated PDX tumors were injected with a microdose of ^14C-labeled carboplatin (FIG. 22A) or ^14C-labeled gemcitabine (FIG. 22B). The microdose of ^14C-labeled carboplatin was 0.375 mg/kg carboplatin, 50,000 dpm/g. The microdose of ^14C-labeled gemcitabine was 0.092 mg/kg gemcitabine, 1000 dpm/g. The doses of each drug administered to the mice were chosen to target 1 μM in plasma concentration of carboplatin and 0.3 μM in plasma concentration of gemcitabine. These plasma concentrations represent 1% of the approximate peak plasma concentration during human chemotherapy. Animals were sacrificed after 24 h and drug-DNA adduct frequency was determined from collected tumor tissue by AMS measurements of ^14C in tumor DNA. Carboplatin DNA-adduct levels correlate with PDX model sensitivity to cisplatin at 24 h after microdosing (FIG. 22A). Gemcitabine DNA-adduct levels correlate with PDX model sensitivity to gemcitabine at 24 h after microdosing (FIG. 22B). […] There is no significant difference in carboplatin-DNA monoadduct levels between the three resistant PDX models. […] We conclude that microdose induced carboplatin-DNA monoadducts predicts sensitivity to cisplatin chemotherapy, and microdose induced gemcitabine incorporation predicts sensitivity to gemcitabine chemotherapy.\n(§5) In this example we test whether gemcitabine/carboplatin (G/Carbo) combination therapy has an effect on the formation of drug-DNA adducts in this synergistic tumor model. In FIG. 23A, NGS mice bearing BL0645 xenographs were administered via tail vein injection a therapeutic dose of [^14C]carboplatin alone or a therapeutic dose of [^14C]carboplatin in combination with a therapeutic dose of gemcitabine. Carboplatin-DNA monoadducts were measured in tumor tissue 24 h after dosing. A therapeutic dose of the combination [^14C]carboplatin plus unlabeled gemcitabine leads to a significant increase in carboplatin-DNA monoadduct level (94.84±16.02 versus 209.6±64.66 adducts per 10^8 nucleotides, p=0.032) compared to treatment with carboplatin alone. In FIG. 23B, the same experiment was conducted in which the mice received a therapeutic dose of [^14C]gemcitabine alone or a therapeutic dose of [^14C]gemcitabine in combination with a therapeutic dose of unlabeled carboplatin. […]"}, "[9]": {"tested_on": "PDX Model BL0269", "test": "drug-DNA adducts in PDX tumor by AMS", "format": "in vivo, NSG mice", "excerpt": "as §3, §4, §5"}},
  "data": [
    {"smiles": "N.N.O=C([O-])C1(C(=O)[O-])CCC1.[Pt+2]", "note": "[carboplatin]", "values": [
      {"measurement": "IC50", "setting": "[1]", "result": 72.2, "unit": "µM"},
      {"measurement": "IC50", "setting": "[2]", "result": 196, "unit": "µM"},
      {"measurement": "IC50", "setting": "[3]", "result": "86.2 ± 10.9", "unit": "µM"},
      {"measurement": "IC50", "setting": "[4]", "result": "22 ± 5.23", "unit": "µM"},
      {"measurement": "IC50", "setting": "[5]", "result": "88.5 ± 30.8", "unit": "µM"},
      {"measurement": "IC50", "setting": "[6]", "result": "53.5 ± 3.65", "unit": "µM"},
      {"measurement": "IC50", "setting": "[7]", "result": "19.4 ± 8.65", "unit": "µM"},
      {"measurement": "mean carboplatin-DNA monoadduct level", "setting": "[8]; microdose 0.375 mg/kg carboplatin alone or with gemcitabine 0.092 mg/kg", "result": "1.27±0.307 adducts per 10^8 nucleotides"},
      {"measurement": "carboplatin-DNA monoadduct level", "setting": "[8]; therapeutic 37.5 mg/kg carboplatin alone or with gemcitabine 9.2 mg/kg", "result": "94.84±16.02 adducts per 10^8 nucleotides"},
      {"measurement": "Carboplatin-DNA monoadduct levels", "setting": "[9]; control experiment FIG. 23E, microdose single agent or G/Carbo combination", "result": "1.85±0.798 adducts per 10^8 nucleotides"},
      {"measurement": "mean carboplatin-DNA monoadduct level", "setting": "[9]; microdose 0.375 mg/kg carboplatin, 24 h (FIG. 22A)", "result": "1.77±0.706 adducts per 10^8 nucleotides"}
    ]}
  ]
}
